Reference: US9115101B2 (Genentech, Inc., priority 2012, dated 2015)
Read-outs that look alike come from different tables or passages of the source.

Target: T1, RORc ligand binding domain (Homo sapiens, UniProt P51449)
T1 construct: host or cells: E. coli
T1 sequence (P51449 269-508 limits assumed): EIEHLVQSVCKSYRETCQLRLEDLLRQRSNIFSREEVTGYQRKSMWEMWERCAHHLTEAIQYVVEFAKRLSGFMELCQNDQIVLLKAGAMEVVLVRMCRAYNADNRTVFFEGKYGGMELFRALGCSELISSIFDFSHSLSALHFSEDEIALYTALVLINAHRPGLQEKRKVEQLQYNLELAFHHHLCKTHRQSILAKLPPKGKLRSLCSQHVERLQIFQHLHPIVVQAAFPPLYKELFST
Test: In Vitro RORc Ligand Binding Assay (25-[3H]hydroxycholesterol radioligand filtration)

[1] = In Vitro RORc Ligand Binding Assay, Table 4, read-out: RORc IC50

SMILES	IC50 (read-out: RORc IC50) [nM]	also measured
CCCNC(=O)[C@@H]1CN(c2ccc(CN3[C@@H](C)CCC(c4ccccc4)S3(=O)=O)c(F)c2)CCN1C(C)=O (stereo partly drawn) [Example 395, (S)-1-Acetyl-4-[3-fluoro-4-((3S)-methyl-1,1-dioxo-6-phenyl-[1,2]thiazinan-2-ylmethyl)-phenyl]-piperazine-2-carboxylic acid propylamide]		IC50 [1]: 287 nM
C[C@H]1CCC(c2ccccc2)S(=O)(=O)N1Cc1ccc(N2CCN3C(=O)CNC(=O)[C@H]3C2)cc1F (stereo partly drawn) [Example 396, (R)-8-[3-Fluoro-4-((3S)-methyl-1,1-dioxo-6-phenyl-[1,2]thiazinan-2-ylmethyl)-phenyl]-hexahydro-pyrazino[1,2-a]pyrazine-1,4-dione]		IC50 [1]: 3250 nM
CCOC(=O)c1ncc2n1CCN(c1ccc(CN3[C@@H](C)CCC(c4ccccc4)S3(=O)=O)c(F)c1)C2 (stereo partly drawn) [Example 397, 7-[3-Fluoro-4-((3S)-methyl-1,1-dioxo-6-phenyl-[1,2]thiazinan-2-ylmethyl)-phenyl]-5,6,7,8-tetrahydro-imidazo[1,5-a]pyrazine-3-carboxylic acid ethyl ester]		IC50 [1]: 872 nM
C[C@H]1CCC(c2ccccc2)S(=O)(=O)N1Cc1ccc(C(=O)N2CCS(=O)(=O)CC2)cc1 (stereo partly drawn) [Example 398, (1,1-Dioxo-1-thiomorpholin-4-yl)-[4-((3S)-methyl-1,1-dioxo-6-phenyl-[1,2]thiazinan-2-ylmethyl)-phenyl]-methanone]		IC50 [1]: 5710 nM
CC(=O)N1CCN(c2ccc(CN3[C@@H](C)CCC(c4ccccc4)S3(=O)=O)c(F)c2)C[C@H]1C(=O)NCCO (stereo partly drawn) [Example 399, (S)-1-Acetyl-4-[3-fluoro-4-((3S)-methyl-1,1-dioxo-6-phenyl-[1,2]thiazinan-2-ylmethyl)-phenyl]-piperazine-2-carboxylic acid (2-hydroxy-ethyl)-amide]	1590	
C[C@H]1CCC(c2ccccc2)S(=O)(=O)N1Cc1ccc(N2CCN3C(=O)OCC3C2)cc1F (stereo partly drawn) [Example 400, 7-[3-Fluoro-4-((3S)-methyl-1,1-dioxo-6-phenyl-[1,2]thiazinan-2-ylmethyl)-phenyl]-hexahydro-oxazolo[3,4-a]pyrazin-3-one]	95	
C[C@H]1CCC(c2ccccc2)S(=O)(=O)N1Cc1ccc(N2CCN3C(=O)CNC(=O)[C@@H]3C2)cc1F (stereo partly drawn) [Example 401, (S)-8-[3-Fluoro-4-((3S)-methyl-1,1-dioxo-6-phenyl-[1,2]thiazinan-2-ylmethyl)-phenyl]-hexahydro-pyrazino[1,2-a]pyrazine-1,4-dione]	2790	
C[C@H]1CCC(c2ccccc2)S(=O)(=O)N1Cc1ccc(N2CCn3c(cnc3CO)C2)cc1F (stereo partly drawn) [Example 404, {7-[3-Fluoro-4-((3S)-methyl-1,1-dioxo-6-phenyl-[1,2]thiazinan-2-ylmethyl)-phenyl]-5,6,7,8-tetrahydro-imidazo[1,5-a]pyrazin-3-yl}-methanol]	504	
C[C@H]1CCC(c2ccccc2)S(=O)(=O)N1Cc1ccc(N2CCC(c3cn[nH]c3)CC2)cc1 (stereo partly drawn) [Example 414, (3S)-Methyl-6-phenyl-2-{4-[4-(1H-pyrazol-4-yl)-piperidin-1-yl]-benzyl}-[1,2]thiazinane 1,1-dioxide]	6	
O=S1(=O)[C@@H](c2ccccc2)CCC2(CC2)N1Cc1ccc(N2CCC(n3cnnc3)CC2)cc1F [Example 415, (R)-4-[2-Fluoro-4-(4-[1,2,4]triazol-4-yl-piperidin-1-yl)-benzyl]-6-phenyl-5-thia-4-aza-spiro[2.5]octane 5,5-dioxide]		IC50 (RORc IC50): 37 nM
COC(=O)[C@H]1CN(C(C)=O)CCN1c1ccc(CN2[C@@H](C)CCC(c3ccccc3)S2(=O)=O)c(F)c1 (stereo partly drawn) [Example 416, (R)-4-Acetyl-1-[3-fluoro-4-((3S)-methyl-1,1-dioxo-6-phenyl-[1,2]thiazinan-2-ylmethyl)-phenyl]-piperazine-2-carboxylic acid methyl ester]	368	
C[C@H]1CCC(c2ccccc2)S(=O)(=O)N1Cc1ccc(N2CCN3C(=O)COCC3C2)cc1F (stereo partly drawn) [Example 417, 8-[3-Fluoro-4-((3S)-methyl-1,1-dioxo-6-phenyl-[1,2]thiazinan-2-ylmethyl)-phenyl]-hexahydro-pyrazino[2,1-c][1,4]oxazin-4-one]	231	
O=S1(=O)[C@H](c2ccccc2)CCC2(CC2)N1Cc1ccc(N2CCC(n3cnnc3)CC2)cc1F [Example 421, (S)-4-[2-Fluoro-4-(4-[1,2,4]triazol-4-yl-piperidin-1-yl)-benzyl]-6-phenyl-5-thia-4-aza-spiro[2.5]octane 5,5-dioxide]		IC50 (RORc IC50): 289 nM
C[C@H]1CCC(c2ccccc2)S(=O)(=O)N1Cc1ccc(N2CCC(n3ncnn3)CC2)cc1 (stereo partly drawn) [Example 423, (3S)-Methyl-6-phenyl-2-[4-(4-tetrazol-2-yl-piperidin-1-yl)-benzyl]-[1,2]thiazinane 1,1-dioxide]	177	
C[C@H]1CCC(c2ccccc2)S(=O)(=O)N1Cc1ccc(N2CC3(CC(n4cnnc4)C3)C2)cc1F (stereo partly drawn) [Example 424, 2-[3-Fluoro-4-((3S)-methyl-1,1-dioxo-6-phenyl-[1,2]thiazinan-2-ylmethyl)-phenyl]-6-[1,2,4]triazol-4-yl-2-aza-spiro[3.3]heptane]	427	
C[C@H]1CCC(c2ccccc2)S(=O)(=O)N1Cc1ccc(N2CC(n3cnnc3)C2)cc1F (stereo partly drawn) [Example 428, 2-[2-Fluoro-4-(3-[1,2,4]triazol-4-yl-azetidin-1-yl)-benzyl]-(3S)-methyl-6-phenyl-[1,2]thiazinane 1,1-dioxide]	88	
C[C@H]1CCC(c2ccccc2)S(=O)(=O)N1Cc1ccc(OC2CCOCC2)cc1 (stereo partly drawn) [Example 432, (3S)-Methyl-6-phenyl-2-[4-(tetrahydro-pyran-4-yloxy)-benzyl]-[1,2]thiazinane 1,1-dioxide]	1110	
CC(=O)N1CCN(c2ccc(CN3[C@@H](C)CCC(c4ccccc4)S3(=O)=O)c(F)c2)[C@@H](C(N)=O)C1 (stereo partly drawn) [Example 433, (R)-4-Acetyl-1-[3-fluoro-4-((3S)-methyl-1,1-dioxo-6-phenyl-[1,2]thiazinan-2-ylmethyl)-phenyl]-piperazine-2-carboxylic acid amide]	228	

The next lines start with results.

IC50 (read-out: RORc IC50) [nM]	SMILES	also measured
3540	C[C@H]1CCC(c2ccccc2)S(=O)(=O)N1Cc1ccc(N2CCN3C(=O)CN(C)C(=O)[C@@H]3C2)cc1F (stereo partly drawn) [Example 402, (S)-8-[3-Fluoro-4-((3S)-methyl-1,1-dioxo-6-phenyl-[1,2]thiazinan-2-ylmethyl)-phenyl]-2-methyl-hexahydro-pyrazino[1,2-a]pyrazine-1,4-dione]	
346	C[C@H]1CCC(c2ccccc2)S(=O)(=O)N1Cc1ccc(N2CCn3c(cnc3C(N)=O)C2)cc1F (stereo partly drawn) [Example 403, 7-[3-Fluoro-4-((3S)-methyl-1,1-dioxo-6-phenyl-[1,2]thiazinan-2-ylmethyl)-phenyl]-5,6,7,8-tetrahydro-imidazo[1,5-a]pyrazine-3-carboxylic acid amide]	
148	CONC(=O)[C@@H]1CN(c2ccc(CN3[C@@H](C)CCC(c4ccccc4)S3(=O)=O)c(F)c2)CCN1C(C)=O (stereo partly drawn) [Example 407, (S)-1-Acetyl-4-[3-fluoro-4-((3S)-methyl-1,1-dioxo-6-phenyl-[1,2]thiazinan-2-ylmethyl)-phenyl]-piperazine-2-carboxylic acid methoxy-amide]	
32	C[C@H]1CCC(c2ccccc2)S(=O)(=O)N1Cc1ccc(N2CCN3C(=O)CC[C@H]3C2)cc1F (stereo partly drawn) [Example 419, (S)-2-[3-Fluoro-4-((3S)-methyl-1,1-dioxo-6-phenyl-[1,2]thiazinan-2-ylmethyl)-phenyl]-hexahydro-pyrrolo[1,2-a]pyrazin-6-one]	
70	C[C@H]1CCC(c2ccccc2)S(=O)(=O)N1Cc1ccc(N2CCC(n3cnnn3)CC2)cc1 (stereo partly drawn) [Example 422, (3S)-Methyl-6-phenyl-2-[4-(4-tetrazol-1-yl-piperidin-1-yl)-benzyl]-[1,2]thiazinane 1,1-dioxide]	
1010	C[C@H]1CCC(c2ccccc2)S(=O)(=O)N1Cc1ccc(N2CC3(CC(n4cnnc4)C3)C2)cc1F (stereo partly drawn) [Example 425, 2-[3-Fluoro-4-((3S)-methyl-1,1-dioxo-6-phenyl-[1,2]thiazinan-2-ylmethyl)-phenyl]-6-[1,2,4]triazol-4-yl-2-aza-spiro[3.3]heptane]	
453	COC(=O)C1(n2cnnc2)CCN(c2ccc(CN3[C@@H](C)CCC(c4ccccc4)S3(=O)=O)c(F)c2)CC1 (stereo partly drawn) [Example 426, 1-[3-Fluoro-4-((3S)-methyl-1,1-dioxo-6-phenyl-[1,2]thiazinan-2-ylmethyl)-phenyl]-4-[1,2,4]triazol-4-yl-piperidine-4-carboxylic acid methyl ester]	
447	COC(=O)C1(n2cnnc2)CCN(c2ccc(CN3[C@@H](C)CCC(c4ccccc4)S3(=O)=O)c(F)c2)CC1 (stereo partly drawn) [Example 427, 1-[3-Fluoro-4-((3S)-methyl-1,1-dioxo-6-phenyl-[1,2]thiazinan-2-ylmethyl)-phenyl]-4-[1,2,4]triazol-4-yl-piperidine-4-carboxylic acid methyl ester]	
559	C[C@H]1CCC(c2ccccc2)S(=O)(=O)N1Cc1ccc(OCC2CCOC2)cc1 (stereo partly drawn) [Example 430, (3S)-Methyl-6-phenyl-2-[4-(tetrahydro-furan-3-ylmethoxy)-benzyl]-[1,2]thiazinane 1,1-dioxide]	
641	C[C@H]1CCC(c2ccccc2)S(=O)(=O)N1Cc1ccc(OCC2CC2)cc1 (stereo partly drawn) [Example 431, 2-(4-Cyclopropylmethoxy-benzyl)-(3S)-methyl-6-phenyl-[1,2]thiazinane 1,1-dioxide]	
1130	CC(=O)N1CCN(c2ccc(CN3[C@@H](C)CCC(c4ccccc4)S3(=O)=O)c(F)c2)[C@@H](C(=O)O)C1 (stereo partly drawn) [Example 434, (R)-4-Acetyl-1-[3-fluoro-4-((3S)-methyl-1,1-dioxo-6-phenyl-[1,2]thiazinan-2-ylmethyl)-phenyl]-piperazine-2-carboxylic acid]	
